18 compounds from ChEMBL document CHEMBL3396985, “Nanomolar inhibitors of Mycobacterium tuberculosis glutamine synthetase 1: synthesis, biological evaluation and X-ray crystallographic studies” (Bioorg Med Chem Lett, 2015) can be followed below.

≈ marks a conversion by molar mass, not a printed value. Calls of active or inactive are those of the source. The rule behind the calls is not given here.

Broadly, the IC80 is the concentration needed for an effect of 80%. Broadly, the IC50 is the concentration needed to halve the response being measured. Usually logD stands for the decadic logarithm of the distribution of all forms, ionised or not, between an organic phase and buffer at a given pH. Higher therefore signals a more lipophilic compound.

Series [1] concerns Mycobacterium tuberculosis. Nature of the series: Antimycobacterial activity against Mycobacterium tuberculosis assessed as inhibition of microbial proliferation after 6 days by cell titer blue reagent based assay. The settings on record: 144 h. In kind it is functional. In general terms: Alamar Blue is a resazurin reagent that responds to reducing activity.
Series [2] in a line: Inhibition of Mycobacterium tuberculosis glutamine synthetase 1 assessed as reduction in ADP formation incubated 1 hr in presence of glutamate, ammonium chloride and ATP.
The next series relates to HepG2. The series can be described thus: Cytotoxicity against human HepG2 cells after 40 hrs by celltiter Glo assay. In kind it is cell-based. The settings on record: HepG2, 40 h. For orientation: In ATP-based viability assays light output follows the ATP content of the culture.
Series [3] in a line: Lipophilicity, log D of the compound. Format: physicochemical. The settings on record: octanol/water.
Series [4] concerns Mycobacterium tuberculosis. The series can be described thus: microbe, parasite or virus in culture. The settings on record: H37Rv ATCC 25618.
Description: Antimycobacterial activity against Mycobacterium tuberculosis H37Rv ATCC 25618 assessed as inhibition of microbial proliferation
For series [5], the system named is Mycobacterium tuberculosis. Nature of the series: ATP competitive inhibition of Mycobacterium tuberculosis glutamine synthetase 1 assessed as reduction in ADP formation incubated 1 hr in presence of glutamate, ammonium chloride and ATP.

Regarding `O=c1c2nccn2c2c(n1C1CC1)-c1cccc(-c3ccccn3)c1C2`, in series [1], the IC80 is greater than 30 µM and the MIC was greater than 30 µM. In addition, the IC50 in series [2] came out at 0.456 µM. Also, in the series on HepG2, the IC50 is greater than 30 µM.
For the compound `COc1cccc(-c2cccc3c2Cc2c-3[nH]c(=O)c3nccn23)c1`, in series [3], the pH-dependent lipophilicity (logD) amounted to 1.87. Further, in series [1], the IC80 is greater than 30 µM and the MIC was greater than 30 µM. Also, in series [2], the IC50 stood at 0.051 µM. In the series with HepG2, this compound had a concentration for half-maximal inhibition (IC50) greater than 30 µM.
On to `O=c1[nH]c2c(n3ccnc13)Cc1c-2cccc1-c1cccc2ncccc12`, for which, in series [3], the logD is 1.02. For the same compound, in series [1], the IC80 is greater than 30 µM and the MIC is greater than 30 µM. Besides, the half-inhibitory concentration (IC50) in series [2] turned out to be 7 µM. This compound also showed an IC50 in the series with HepG2 greater than 30 µM.
Consider `C=CCCn1c2c(n3ccnc3c1=O)Cc1c(-c3cccnc3)cccc1-2`, for which, in series [1], the concentration for an effect of 80% (IC80) is greater than 30 µM and the MIC is greater than 30 µM. The IC50 in series [2] is 0.007 µM. Also, the IC50 with HepG2 is greater than 30 µM.
In series [3], `C=CCn1c2c(n3ccnc3c1=O)Cc1c(-c3ccccc3)cccc1-2` registered a log distribution coefficient (logD) of 2.7. Besides, in series [1], the IC80 is greater than 30 µM. The MIC in series [1] is greater than 30 µM. Besides, the IC50 in series [2] was 0.333 µM; in the series on HepG2 it was greater than 30 µM.
As to `COCCn1c2c(n3ccnc3c1=O)Cc1c(-c3ccccc3)cccc1-2`, in series [1], the IC80 was greater than 30 µM and the MIC is greater than 30 µM. The IC50 in series [2] is 0.219 µM. For the same compound, in the series on HepG2, half-maximal inhibition (IC50) required 23 µM.
On to `CC(C)Cn1c2c(n3ccnc3c1=O)Cc1c(-c3cccnc3)cccc1-2`, for which, in series [1], the 80% effect concentration (IC80) is greater than 30 µM. Further, in series [1], the MIC is greater than 30 µM. Further, the IC50 was 0.066 µM in series [2] and greater than 30 µM in the series on HepG2.
As to `CC(=O)Nc1cccc2c1Cc1c-2[nH]c(=O)c2nccn12`, in series [1], the IC80 was greater than 30 µM and the MIC is greater than 30 µM. For the same compound, the IC50 in series [2] is 2.1 µM. For the same compound, the concentration for half-maximal inhibition (IC50) in the series on HepG2 was greater than 30 µM.
Compound `O=c1[nH]c2c(n3ccnc13)Cc1c(-c3cccc(Cl)c3)cccc1-2` returned a logD in series [3] of 2.38. In series [1], the IC80 came out at 22 µM and the MIC worked out at 22 µM. In addition, the IC50 in series [2] is 0.61 µM. The compound also came in with an IC50 with HepG2 of 15 µM.
As to `COc1cccc(-c2cccc3c2Cc2c-3n(CCCN(C)C)c(=O)c3nccn23)c1`, in series [1], the IC80 is greater than 30 µM and the MIC is greater than 30 µM. Further, in series [2], the IC50 worked out at 0.084 µM. Further, 15 µM corresponded to half-maximal inhibition with HepG2 (IC50).
Regarding `O=c1[nH]c2c(n3ccnc13)Cc1c(Br)cccc1-2`, in series [3], the pH-dependent lipophilicity (logD) was 1.77. Moreover, in series [1], the IC80 was greater than 30 µM and the MIC is greater than 30 µM. Besides, the concentration for half-maximal inhibition (IC50) in series [2] is greater than 0.03 µM. Moreover, the concentration for half-maximal inhibition (IC50) in the series with HepG2 is greater than 30 µM.
On to `Cn1c2c(n3ccnc3c1=O)Cc1c(-c3ccccc3)cccc1-2`, for which, in series [3], the logD amounted to 2.25. Also, in series [1], the IC80 is greater than 30 µM and the MIC is greater than 30 µM. Moreover, the IC50 in series [2] stood at 0.17 µM. This compound gave an IC50 in the series with HepG2 greater than 30 µM.
For the compound `O=c1[nH]c2c(n3ccnc13)Cc1c(-c3cccnc3)cccc1-2`, the log distribution coefficient (logD) in series [3] was determined as 0.26. Further, in series [1], the 80% effect concentration (IC80) came out at 29 µM and the MIC came out at 29 µM. The IC50 in series [2] is 0.031 µM. In the series with HepG2, this compound had an IC50 greater than 30 µM.
In the case of `CN(C)CCCn1c2c(n3ccnc3c1=O)Cc1c(-c3ccccn3)cccc1-2`, the IC80 in series [1] was greater than 30 µM. Also, the MIC in series [1] was greater than 30 µM. In addition, the IC50 was 0.857 µM in series [2] and greater than 30 µM with HepG2.
Turning to `CN(C)CCCn1c2c(n3ccnc3c1=O)Cc1c(-c3cccnc3)cccc1-2`, in series [1], the IC80 is greater than 30 µM and the MIC is greater than 30 µM. Further, the 50% inhibitory concentration (IC50) in series [2] turned out to be 0.131 µM. For the same compound, the IC50 with HepG2 is greater than 30 µM.
In turn, `C[S@](=N)(=O)CC[C@H](N)C(=O)O` displayed an MIC in series [4] of 10 µM (≈ 1.8 µg/mL).
`O=c1c2nccn2c2c(n1Cc1ccccc1)-c1cccc(-c3ccccc3)c1C2`: the logD in series [3] was 3.33. In series [1], the IC80 amounted to 29 µM. Also, the MIC in series [1] was determined as 29 µM. The values for the IC50 (in series [2]; in the series on HepG2) were 0.663 µM and 20 µM, respectively.
Turning to `O=c1[nH]c2c(n3ccnc13)Cc1c(-c3ccccc3)cccc1-2`, the logD in series [3] was 3.52. Besides, in series [1], the IC80 is greater than 30 µM and the MIC was greater than 30 µM. For the same compound, in series [5], the inhibition entry is “Active”. In addition, the IC50 in series [2] is 0.031 µM. The half-inhibitory concentration (IC50) in the series on HepG2 was greater than 30 µM.
